Reference: patent publication US20060069132A1, “Azolecarboxamide herbicides” (priority 2004, published 2006)

Tests used:
[1] = tested on: giant foxtail; assay: Test A pre-/postemergence herbicide test; assay type: in vivo, Setaria faberi
How it was run: (§1)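 Pre: seeded sandy loam, directed soil spray, compound in non-phytotoxic solvent + surfactant. Post: 1–2-leaf plants (2–10 cm), sprayed to runoff. Greenhouse ~10 d; visual injury vs untreated, 0–100 scale.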

[2] = tested on: Surinam grass; assay: Test B pre-/postemergence herbicide test; assay type: in vivo, Urochloa decumbens; conditions: for Surinam Grass plant response rating: postemergence, visual rating, scale 0 (no effect) to 100 (complete control)
How it was run: (§2)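 Greenhouse pot assay with simultaneous preemergence (treated seed) and postemergence (2–18 cm seedlings) applications of surfactant-containing, non-phytotoxic solvent formulations. Response scored visually 13–15 days later on a 0–100 scale, 100 meaning complete control.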

[3] = tested on: wild oat; assay: Test B postemergence herbicide test; assay type: in vivo, Avena fatua; conditions: postemergence, visual rating, scale 0 (no effect) to 100 (complete control)
How it was run: (§3)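 Greenhouse test; postemergence application to plants at 1–4 leaves (2–18 cm); paddy species at 2 leaves; evaluated visually vs controls at 13–15 days; scale 0–100 (100 = complete control).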

[4] = tested on: morningglory; assay: Test B pre-/postemergence herbicide test; assay type: in vivo, Ipomoea coccinea; conditions: for Morningglory plant response rating: postemergence, visual rating, scale 0 (no effect) to 100 (complete control)
How it was run: (§4)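 Test chemicals in a non-phytotoxic solvent mixture with surfactant were applied preemergence to seeded species and postemergence to plants 2-18 cm tall (1- to 4-leaf stage); rice and barnyardgrass were also tested in a flooded paddy at the 2-leaf stage. Visual rating versus controls after 13-15 days in greenhouse, scale 0 (no effect) to 100 (complete control).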

[5] = tested on: large crabgrass; assay: Test B pre-/postemergence herbicide test; assay type: in vivo, Digitaria sanguinalis; conditions: for Crabgrass, Large plant response rating: postemergence, visual rating, scale 0 (no effect) to 100 (complete control)
How it was run: as §2

[6] = tested on: rice; assay: Test B pre-/postemergence herbicide test; assay type: in vivo, Oryza sativa; conditions: preemergence
How it was run: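 Species tested were Echinochloa crus-galli, Ipomoea coccinea, Xanthium strumarium and Oryza sativa, treated both before emergence and at the 1- to 4-leaf stage; rice and barnyardgrass were also tested under flooding at 2 leaves. Greenhouse incubation lasted 13–15 days before visual 0–100 scoring.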

[7] = tested on: velvetleaf; assay: Test A pre-/postemergence herbicide test; assay type: in vivo, Abutilon theophrasti
How it was run: as §1

[8] = tested on: barnyardgrass; assay: Test B flooded paddy test; assay type: in vivo, Echinochloa crus-galli; conditions: 1000 g ai/ha, visual rating, scale 0 to 100 (0 no effect, 100 complete control), 13 to 15 days
How it was run: (§5)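 Paddy species grown to the 2-leaf stage under flooding; blackgrass sprayed postemergence at 2–18 cm (1- to 4-leaf stage). Plants kept in a greenhouse for 13 to 15 days, then visually rated against controls on 0 (no effect) to 100 (complete control).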

[9] = tested on: corn; assay: Test B pre-/postemergence herbicide test; assay type: in vivo, Zea mays; conditions: for Corn plant response rating: postemergence, visual rating, scale 0 (no effect) to 100 (complete control)
How it was run: as §2

[10] = tested on: barnyardgrass; assay: Test A pre-/postemergence herbicide test; assay type: in vivo, Echinochloa crus-galli
How it was run: as §1

[11] = tested on: pigweed; assay: Test B pre-/postemergence herbicide test; assay type: in vivo, Amaranthus retroflexus; conditions: for Pigweed plant response rating: postemergence, visual rating, scale 0 (no effect) to 100 (complete control)
How it was run: as §2

[12] = tested on: morningglory; assay: Test A pre-/postemergence herbicide test; assay type: in vivo, Ipomoea spp.
How it was run: as §1

[13] = tested on: small flower umbrella sedge; assay: Test B flooded paddy test; assay type: in vivo, Cyperus difformis; conditions: 1000 g ai/ha, visual rating, scale 0 to 100 (0 no effect, 100 complete control), 13 to 15 days
How it was run: as §5

[14] = tested on: cocklebur; assay: Test B pre-/postemergence herbicide test; assay type: in vivo, Xanthium strumarium; conditions: for Cocklebur plant response rating: postemergence, visual rating, scale 0 (no effect) to 100 (complete control)
How it was run: as §4

[15] = tested on: lambsquarters; assay: Test B pre-/postemergence herbicide test; assay type: in vivo, Chenopodium album; conditions: for Lambsquarters plant response rating: postemergence, visual rating, scale 0 (no effect) to 100 (complete control)
How it was run: as §2

[16] = tested on: ducksalad; assay: Test B flooded paddy test; assay type: in vivo, Heteranthera limosa; conditions: 1000 g ai/ha, visual rating, scale 0 to 100 (0 no effect, 100 complete control), 13 to 15 days
How it was run: as §5

[17] = tested on: large crabgrass; assay: Test A pre-/postemergence herbicide test; assay type: in vivo, Digitaria sanguinalis
How it was run: as §1

[18] = tested on: rice; assay: Test B flooded paddy test; assay type: in vivo, Oryza sativa; conditions: 1000 g ai/ha, visual rating, scale 0 to 100 (0 no effect, 100 complete control), 13 to 15 days
How it was run: as §3

[19] = tested on: wheat; assay: Test B postemergence herbicide test; assay type: in vivo, Triticum aestivum; design: key to Wheat plant response rating: 0 = no effect, 100 = complete control; conditions: postemergence, visual rating, scale 0 (no effect) to 100 (complete control)
How it was run: as §3

[20] = tested on: barnyardgrass; assay: Test B pre-/postemergence herbicide test; assay type: in vivo, Echinochloa crus-galli; conditions: for Barnyardgrass plant response rating: postemergence, visual rating, scale 0 (no effect) to 100 (complete control)
How it was run: as §4

[21] = tested on: giant foxtail; assay: Test B pre-/postemergence herbicide test; assay type: in vivo, Setaria faberi; conditions: for Foxtail, Giant plant response rating: postemergence, visual rating, scale 0 (no effect) to 100 (complete control)
How it was run: as §2

[22] = tested on: redroot pigweed; assay: Test A pre-/postemergence herbicide test; assay type: in vivo, Amaranthus retroflexus
How it was run: as §1

[23] = tested on: velvetleaf; assay: Test B pre-/postemergence herbicide test; assay type: in vivo, Abutilon theophrasti; conditions: for Velvetleaf plant response rating: postemergence, visual rating, scale 0 (no effect) to 100 (complete control)
How it was run: as §2

[24] = tested on: blackgrass; assay: Test B postemergence herbicide test; assay type: in vivo, Alopecurus myosuroides; conditions: postemergence, visual rating, scale 0 (no effect) to 100 (complete control)
How it was run: as §5

[25] = Postemergence, 500 g ai/ha, 0 to 100 scale, 0 no effect, 100 complete control
[26] = Postemergence, 2000 g ai/ha, 0 to 100 scale, 0 no effect, 100 complete control
[27] = Preemergence, 2000 g ai/ha, visual rating, 0 to 100 scale (0 no effect, 100 complete control)
[28] = preemergence, 500 g ai/ha, visual injury, 0 to 100 scale (0 no effect, 100 complete control)
[29] = 125 g ai/ha, 0 = no effect, 100 = complete control, preemergence
[30] = 500 g ai/ha, visual rating 0-100, 0 no effect, 100 complete control, preemergence

## Cc1nc(C(C)(C)C)sc1C(=O)Nc1cccc(C(=O)NCCF)c1 [Compound 200]
[1]; [25]
  Foxtail, Giant plant response rating: 0
[1]; [26]
  Plant response rating, Foxtail, Giant: 20
[1]; [27]
  Foxtail, Giant plant response rating: 60
[1]; [28]
  Foxtail, Giant plant response rating: 35
[2]; [29]
  Surinam Grass plant response rating (0 to 100 scale): 0
[2]; [30]
  Plant response rating, Surinam Grass: 10
[2]; 125 g ai/ha
  Surinam Grass plant response rating: 10
[2]; 500 g ai/ha
  Surinam Grass plant response rating: 20
[3]; 125 g ai/ha
  Oat, Wild plant response rating: 0
[3]; 500 g ai/ha
  Oat, Wild plant response rating: 10
[4]; [29]
  Morningglory plant response rating (0 to 100 scale): 0
[4]; [30]
  Plant response rating, Morningglory: 10
[4]; 125 g ai/ha
  Morningglory plant response rating: 0
[4]; 500 g ai/ha
  Morningglory plant response rating: 40
[5]; [29]
  Crabgrass, Large plant response rating (0 to 100 scale): 50
[5]; [30]
  Plant response rating, Crabgrass, Large: 90
[5]; 125 g ai/ha
  Crabgrass, Large plant response rating: 0
[5]; 500 g ai/ha
  Crabgrass, Large plant response rating: 10
[6]; 125 g ai/ha, 0 = no effect, 100 = complete control
  Rice plant response rating (0 to 100 scale): 0
[6]; 500 g ai/ha, visual rating 0-100, 0 no effect, 100 complete control
  Plant response rating, Rice: 10
[7]; [25]
  Velvetleaf plant response rating: 10
[7]; [26]
  Plant response rating, Velvetleaf: 10
[7]; [27]
  Velvetleaf plant response rating: 35
[7]; [28]
  Velvetleaf plant response rating: 20
[8]
  Barnyardgrass plant response rating: 0
[9]; [29]
  Corn plant response rating (0 to 100 scale): 0
[9]; [30]
  Plant response rating, Corn: 0
[9]; 125 g ai/ha
  Corn plant response rating: 10
[9]; 500 g ai/ha
  Corn plant response rating: 30
[10]; [25]
  Barnyardgrass plant response rating: 10
[10]; [26]
  Plant response rating, Barnyardgrass: 35
[10]; [27]
  Barnyardgrass plant response rating: 45
[10]; [28]
  Barnyardgrass plant response rating: 35
[11]; [29]
  Pigweed plant response rating (0 to 100 scale): 10
[11]; [30]
  Plant response rating, Pigweed: 90
[11]; 125 g ai/ha
  Pigweed plant response rating: 10
[11]; 500 g ai/ha
  Pigweed plant response rating: 40
[12]; [25]
  Morningglory plant response rating: 35
[12]; [26]
  Plant response rating, Morningglory: 45
[12]; [27]
  Morningglory plant response rating: 60
[12]; [28]
  Morningglory plant response rating: 15
[13]
  Sedge, Umbrella plant response rating: 50
[14]; [29]
  Cocklebur plant response rating (0 to 100 scale): 0
[14]; [30]
  Plant response rating, Cocklebur: 0
[14]; 125 g ai/ha
  Cocklebur plant response rating: 10
[14]; 500 g ai/ha
  Cocklebur plant response rating: 20
[15]; [29]
  Lambsquarters plant response rating (0 to 100 scale): 20
[15]; [30]
  Plant response rating, Lambsquarters: 80
[15]; 125 g ai/ha
  Lambsquarters plant response rating: 60
[15]; 500 g ai/ha
  Lambsquarters plant response rating: 60
[16]
  Ducksalad plant response rating: 0
[17]; [25]
  Crabgrass, Large plant response rating: 10
[17]; [26]
  Plant response rating, Crabgrass, Large: 25
[17]; [27]
  Crabgrass, Large plant response rating: 75
[17]; [28]
  Crabgrass, Large plant response rating: 70
[18]
  Rice plant response rating: 0
[19]; 125 g ai/ha
  Wheat plant response rating: 0
[19]; 500 g ai/ha
  Wheat plant response rating: 0
[20]; [29]
  Barnyardgrass plant response rating (0 to 100 scale): 0
[20]; [30]
  Plant response rating, Barnyardgrass: 20
[20]; 125 g ai/ha
  Barnyardgrass plant response rating: 0
[20]; 500 g ai/ha
  Barnyardgrass plant response rating: 10
[21]; [29]
  Foxtail, Giant plant response rating (0 to 100 scale): 0
[21]; [30]
  Plant response rating, Foxtail, Giant: 10
[21]; 125 g ai/ha
  Foxtail, Giant plant response rating: 10
[21]; 500 g ai/ha
  Foxtail, Giant plant response rating: 10
[22]; [25]
  Pigweed plant response rating: 50
[22]; [26]
  Plant response rating, Pigweed: 60
[22]; [27]
  Pigweed plant response rating: 95
[22]; [28]
  Pigweed plant response rating: 80
[23]; [29]
  Velvetleaf plant response rating (0 to 100 scale): 0
[23]; [30]
  Plant response rating, Velvetleaf: 20
[23]; 125 g ai/ha
  Velvetleaf plant response rating: 10
[23]; 500 g ai/ha
  Velvetleaf plant response rating: 30
[24]; 125 g ai/ha
  Blackgrass plant response rating: 0
[24]; 500 g ai/ha
  Blackgrass plant response rating: 10
